Source: US11607404B2, “Combinations of RAD51 and PARP inhibitors” (Cyteir Therapeutics, Inc., priority 2019, dated 2023)

Tests used:
[1] = system: HBCx17 model; assay: Tumor growth inhibition, subcutaneous engrafted tumor model; assay type: in vivo, mice; conditions: HRD Positive, RAD51 High, BRCA2 Mut, PALB2 WT, 67A 80 mg/kg QD, olaparib 100 mg/kg QD, combo both
Protocol: (§1) Immunodeficient mice were subcutaneously engrafted in the rear flank with the tumor cells. The tumors were allowed to grow to a size of about 100 to about 200 mm^3 prior to being randomized and grouped into treatment arms. For models […] through […] the four treatment arms were vehicle, Compound 67A at 80 mg/kg QD, olaparib at 100 mg/kg QD, and Compound 67A+Olaparib at 80 mg/kg QD and 100 mg/kg QD, respectively. For models J000101173 through TM00091 the treatment arms were vehicle, Compound 67A at 40 mg/kg QD, olaparib at 50 mg/kg QD, and Compound 67A+Olaparib at 40 mg/kg QD and 50 mg/kg QD, respectively. The tumors were measured either once weekly or twice weekly.
(§2) Percent Tumor Growth Inhibition (% TGI) was calculated by taking the mean volume of each of the treatment arms, and comparing the treatment arms to the vehicle arms using the following equation

[2] = system: J000101173 model; assay: as above; assay type: in vivo, mice; conditions: HRD Positive, RAD51 Low, BRCA WT, PALB2 WT, 67A 40 mg/kg QD, olaparib 50 mg/kg QD, combo both
Protocol: as §1, §2

[3] = system: TM00090 model; assay: as above; assay type: in vivo, mice; conditions: HRD Positive, RAD51 Low, BRCA1 Meth, BRCA2 Mut, PALB2 WT, 67A 40 mg/kg QD, olaparib 50 mg/kg QD, combo both
Protocol: as §1, §2

[4] = system: HBCx16 model; assay: as above; assay type: in vivo, mice; conditions: HRD Positive, RAD51 High, BRCA1 Meth, PALB2 WT, 67A 80 mg/kg QD, olaparib 100 mg/kg QD, combo both
Protocol: as §1, §2

[5] = system: T298 model; assay: as above; assay type: in vivo, mice; conditions: HRD Positive, RAD51 Low, BRCA WT, PALB2 Mut, 67A 80 mg/kg QD, olaparib 100 mg/kg QD, combo both
Protocol: as §1, §2

[6] = system: TM00091 model; assay: as above; assay type: in vivo, mice; conditions: HRD Positive, RAD51 High, BRCA1 Mut, PALB2 WT, 67A 40 mg/kg QD, olaparib 50 mg/kg QD, combo both
Protocol: as §1, §2

[7] = system: HBCx12B model; assay: as above; assay type: in vivo, mice; conditions: HRD Positive, RAD51 High, BRCA1 Meth, PALB2 WT, 67A 80 mg/kg QD, olaparib 100 mg/kg QD, combo both
Protocol: as §1, §2

[8] = system: HBCx23 model; assay: as above; assay type: in vivo, mice; conditions: HRD Positive, RAD51 High, BRCA1 Meth, PALB2 WT, 67A 80 mg/kg QD, olaparib 100 mg/kg QD, combo both
Protocol: as §1, §2

[9] = system: J000100675 model; assay: as above; assay type: in vivo, mice; conditions: HRD Negative, RAD51 Low, BRCA WT, PALB2 WT, 67A 40 mg/kg QD, olaparib 50 mg/kg QD, combo both
Protocol: as §1, §2

[10] = system: HBCx11 model; assay: as above; assay type: in vivo, mice; conditions: HRD Positive, RAD51 High, BRCA1 Mut, PALB2 WT, 67A 80 mg/kg QD, olaparib 100 mg/kg QD, combo both
Protocol: as §1, §2

[11] = system: TM01079 model; assay: as above; assay type: in vivo, mice; conditions: HRD Positive, RAD51 Low, BRCA1 Meth, PALB2 WT, 67A 40 mg/kg QD, olaparib 50 mg/kg QD, combo both
Protocol: as §1, §2

[12] = system: TM000113 model; assay: as above; assay type: in vivo, mice; conditions: HRD Negative, RAD51 Low, BRCA WT, PALB2 WT, 67A 40 mg/kg QD, olaparib 50 mg/kg QD, combo both
Protocol: as §1, §2

[13] = system: HBCx1 model; assay: as above; assay type: in vivo, mice; conditions: HRD Positive, RAD51 High, BRCA WT, PALB2 WT, 67A 80 mg/kg QD, olaparib 100 mg/kg QD, combo both
Protocol: as §1, §2

[14] = system: HBCx27 model; assay: as above; assay type: in vivo, mice; conditions: HRD Negative, RAD51 High, BRCA WT, PALB2 WT, 67A 80 mg/kg QD, olaparib 100 mg/kg QD, combo both
Protocol: as §1, §2

[15] = system: TM00096 model; assay: as above; assay type: in vivo, mice; conditions: HRD Positive, RAD51 Low, BRCA WT, PALB2 WT, 67A 40 mg/kg QD, olaparib 50 mg/kg QD, combo both
Protocol: as §1, §2

[16] = system: ARPE19/HPV16, KYSE-70 and Daudi cell lines; assay: Combination matrix study Compound 67A + PARP inhibitors, cell lines of varying AID expression (Bliss, Loewe); assay type: cell-based; conditions: non-tumor derived cell line ARPE19/HPV16; in combination with Compound 67A
Protocol: The combination matrix was tested in 3 cell lines of varying AID expression: ARPE19/HPV16 (HPV immortalized normal epithelial cell line), KYSE-70 (head and neck cancer cell line) and Daudi (Burkitt's Lymphoma cell line). […] Both the Loewe Additivity model and the Bliss Independence model were used to determine drug interaction (synergistic, independent, or antagonistic).
Bliss Independence model was used and calculated in Excel. The model assumes that the drugs act with probabilistic independence. Bliss: yexp=yA+yB−yAyB
This expected value was generated by examining single-agent effects and then tested against the observed value using a two-tailed Welch's T-Test. For visualization purposes, the values generated from this test were transformed to a “Synergy Score” by doing the computation:
Loewe Additivity model was used and calculated by the “Synergyfinder” R package.
The graphs generated describe the difference between the expected value generated by the additivity model and the observed value generated by the experiment. If the effect determined by the additivity model<the effect observed the space is colored red, if the effect determined by the additivity mode>the effect observed then the space is colored green. The saturation of the color is proportional to the magnitude of the difference between these two values.

O=C(c1cc(Cc2n[nH]c(=O)c3ccccc23)ccc1F)N1CCN(C(=O)C2CC2)CC1 [Olaparib, olaparib, reference compound]
% TGI [1]: 122%
% TGI [2]: 4.71%
% TGI [3]: 86.05%
% TGI [4]: −25.61%
% TGI [5]: 107%
% TGI [6]: 21.26%
% TGI [7]: 42.56%
% TGI [8]: 84.48%
% TGI [9]: −17%
% TGI [10]: 60.95%
% TGI [11]: 68.7%
% TGI [12]: 2.37%
% TGI [13]: 51.07%
% TGI [14]: 7.819%
% TGI [15]: −1.94%
Drug interaction with Compound 67A (synergy) [16]: synergy observed
